Source: ChEMBL document CHEMBL1201862, “PubChem BioAssay data set” (2004)
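Results reflect a 48-hour exposure of cells in 96-well plates to compound at five concentrations. GI50 is the concentration that inhibits growth by half.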 Calls of active or inactive are those of the source. Rule as the data show it: active = GI50 up to about 1.1 µM and inactive = higher.

How the values were obtained:
Assay in all cases: NCI tumour cell line growth inhibition, 48 h
OVCAR-3 = test system: OVCAR-3
OVCAR-4 = test system: OVCAR-4
RXF 631 = test system: RXF 631
UO-31 = test system: UO-31
HT-29 = test system: HT-29
HOP-62 = test system: HOP-62
SNB-78 = test system: SNB-78
RPMI-8226 = test system: RPMI-8226
SW-620 = test system: SW-620
HCC 2998 = test system: HCC 2998
OVCAR-8 = test system: OVCAR-8
SN12C = test system: SN12C
XF498 = test system: XF498
SF-539 = test system: SF-539
EKVX = test system: EKVX
MOLT-4 = test system: MOLT-4
M14 = test system: M14
RXF 393 = test system: RXF 393
Malme-3M = test system: Malme-3M
CCRF-CEM = test system: CCRF-CEM
U-251 = test system: U-251
HCT-15 = test system: HCT-15
HOP-18 = test system: HOP-18
LXFL 529 = test system: LXFL 529
A549 = test system: A549
OVCAR-5 = test system: OVCAR-5
DMS-114 = test system: DMS-114
HCT-116 = test system: HCT-116
SNB-19 = test system: SNB-19
K562 = test system: K562
CAKI-1 = test system: CAKI-1
ACHN = test system: ACHN
HL-60 = test system: HL-60
NCI-H460 = test system: NCI-H460
COLO 205 = test system: COLO 205
SF-268 = test system: SF-268
SF-295 = test system: SF-295
HOP-92 = test system: HOP-92
KM-20L2 = test system: KM-20L2
NCI-H23 = test system: NCI-H23
DMS-273 = test system: DMS-273
786-0 = test system: 786-0
SNB-75 = test system: SNB-75
IGROV-1 = test system: IGROV-1
UACC-62 = test system: UACC-62
SK-MEL-2 = test system: SK-MEL-2
UACC-257 = test system: UACC-257
SK-MEL-5 = test system: SK-MEL-5
SK-OV-3 = test system: SK-OV-3
NCI-H522 = test system: NCI-H522
M19-MEL = test system: M19-MEL
DLD-1 = test system: DLD-1
A498 = test system: A498
TK-10 = test system: TK-10
SK-MEL-28 = test system: SK-MEL-28

`c1ccc2c3c([nH]c2c1)[C@H]1C2CCCCN2CN1CC3` (stereo not given in full) was tested, and the GI50 (OVCAR-3) was > 100 µM (inactive), the GI50 (OVCAR-4) was > 100 µM (inactive) and the GI50 (RXF 631) was > 100 µM (inactive). The GI50 (UO-31) was > 100 µM (inactive), the GI50 (HT-29) was 81.7 µM (inactive) and the GI50 (HOP-62) was > 100 µM (inactive). For the same molecule, the GI50 (SNB-78) was 94.4 µM (inactive), the GI50 (RPMI-8226) was > 100 µM (inactive) and the GI50 (SW-620) was > 100 µM (inactive). The GI50 (HCC 2998) was > 100 µM (inactive), the GI50 (OVCAR-8) was > 100 µM (inactive) and the GI50 (SN12C) was > 100 µM (inactive). For the same molecule, the GI50 (XF498) was > 100 µM (inactive), the GI50 (SF-539) was > 100 µM (inactive) and the GI50 (EKVX) was > 100 µM (inactive). For the same molecule, the GI50 (MOLT-4) was > 100 µM (inactive), the GI50 (M14) was > 100 µM (inactive) and the GI50 (RXF 393) was 89.9 µM (inactive). The GI50 (Malme-3M) was 83.6 µM (inactive), the GI50 (CCRF-CEM) was > 100 µM (inactive) and the GI50 (U-251) was > 100 µM (inactive). The GI50 (HCT-15) was > 100 µM, the GI50 (HOP-18) was > 100 µM (inactive) and the GI50 (LXFL 529) was > 100 µM (inactive). The GI50 (A549) was > 100 µM (inactive), the GI50 (OVCAR-5) was > 100 µM (inactive) and the GI50 (DMS-114) was 47.8 µM (inactive). For the same molecule, the GI50 (HCT-116) was > 100 µM (inactive), the GI50 (SNB-19) was > 100 µM (inactive) and the GI50 (K562) was > 100 µM (inactive). The GI50 (CAKI-1) was > 100 µM (inactive), the GI50 (ACHN) was > 100 µM (inactive) and the GI50 (HL-60) was 47.2 µM (inactive). For the same molecule, the GI50 (NCI-H460) was > 100 µM (inactive), the GI50 (COLO 205) was > 100 µM (inactive) and the GI50 (SF-268) was 51.6 µM (inactive). The GI50 (SF-295) was > 100 µM (inactive), the GI50 (HOP-92) was > 100 µM (inactive) and the GI50 (KM-20L2) was > 100 µM (inactive). The GI50 (NCI-H23) was > 100 µM (inactive), the GI50 (DMS-273) was > 100 µM (inactive) and the GI50 (786-0) was > 100 µM (inactive). The GI50 (SNB-75) was 27.1 µM (inactive), the GI50 (IGROV-1) was > 100 µM (inactive) and the GI50 (UACC-62) was 51.8 µM (inactive). The GI50 (SK-MEL-2) was > 100 µM (inactive), the GI50 (UACC-257) was > 100 µM (inactive) and the GI50 (SK-MEL-5) was > 100 µM (inactive). The GI50 (SK-OV-3) was > 100 µM (inactive), the GI50 (NCI-H522) was > 100 µM (inactive) and the GI50 (M19-MEL) was > 100 µM (inactive). For the same molecule, the GI50 (DLD-1) was > 100 µM (inactive), the GI50 (A498) was > 100 µM (inactive) and the GI50 (TK-10) was > 100 µM (inactive). The GI50 (SK-MEL-28) was > 100 µM (inactive).
